Reference: patent US20260174875A1 (Novo Nordisk A/S, priority 2023, published 2026)
Where two headings read alike, the source gives them in different places. Numbered stars: 1 amine (or outer) side, 2 acyl side, 3 side chain; on linkers, the order of the positions; unused ones are H or OH. Square brackets hold non-standard residues; d marks the D form. Side chains are listed from the residue outwards. * marks the point of attachment. C20 diacid = O=C(O)CCCCCCCCCCCCCCCCCCC(=O)*; γGlu = O=C(O)[C@H](CCC(=O)[*:2])N[*:1]; AEEA = NCCOCCOCC(=O)O; Aib = CC(C)(N)C(=O)O

Target: T1, human GIP receptor (hGIPR) (Homo sapiens, UniProt P48546)
T1 construct: expressed in transfected cells
T1 sequence (P48546 22-466): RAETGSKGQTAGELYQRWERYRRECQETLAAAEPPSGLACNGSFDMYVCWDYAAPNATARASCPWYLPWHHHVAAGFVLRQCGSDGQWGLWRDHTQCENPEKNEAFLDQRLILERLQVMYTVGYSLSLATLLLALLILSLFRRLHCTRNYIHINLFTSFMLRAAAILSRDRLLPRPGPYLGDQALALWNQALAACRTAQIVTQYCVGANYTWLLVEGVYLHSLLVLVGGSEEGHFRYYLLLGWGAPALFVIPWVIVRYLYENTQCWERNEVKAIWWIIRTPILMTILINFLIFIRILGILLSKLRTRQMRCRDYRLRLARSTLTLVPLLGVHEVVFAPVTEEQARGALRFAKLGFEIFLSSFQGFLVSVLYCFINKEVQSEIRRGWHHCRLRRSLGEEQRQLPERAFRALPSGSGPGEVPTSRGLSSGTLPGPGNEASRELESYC
Test: GIP receptor assay, method B (CRE-luciferase reporter, BHK cells, 384-well)
Format: cell-based

**Q.** “Y[Aib]EGTFTSDYSILLEEQAAREFIEWLLAGGPSSGAGQAPGQAPGASHLSTAQTQRLSAELHK([AEEA-AEEA-γGlu-C20 diacid])LATLPRTETGSGSP-NH2 [Compound 115]” was tested. Which EC50 (hGIPR Potency, 1% HSA, EC50, methods B, in the presence of 1% HSA) did it give?
**A.** Its EC50 is 0.0389 nM.

**Q.** And the EC50 (method B, absence of HSA, read-out: hGIPR Potency, no HSA, EC50)?
**A.** The EC50 was 0.0103 nM.
